Results: patent publication US20210177542A1, “POWDER FOR CLEANING AN INTERNAL BODY PART AND/OR AN IMPLANT, METHOD FOR PRODUCING SAID TYPE OF POWDER AND SUITABLE USES” (FERTON HOLDING S.A., priority 2017, published 2021)
Values after ≈ are worked out from the molar mass of the structure shown.

Legend:
Format in all cases: physicochemical
Density of the powder = details: Table 1
Text: In another embodiment of the present disclosure, it is provided for the powder to have a density between 0.2 and 3 g/cm^3, preferably between 0.2 and 2.4 g/ cm^3 and particularly preferably between 0.2 and 1.6 g/ cm^3.

[1] = Hygroscopicity (moisture absorption) of the powder types; details: sensitivity to moisture during sterilizing
Text: The powders of present disclosure are hygroscopic. According to a preferred embodiment, amorphous silica (silicon dioxide) is therefore added to the powders, especially in a volume ratio of 0.1 to 2.5%. This can reduce or even completely prevent absorption of moisture by the powder during sterilizing. The addition of amorphous silica results in hydrophobic coating for the powder particles, thus counteracting the moisture absorption of the powder particles during the sterilizing process. In less hygroscopic powders, addition of amorphous silica may be reduced or even completely omitted. The following powder types may be classified as hygroscopic: sodium hydrogen carbonate, glycine and erythritol.

[2] = Solubility in water at 20° C.; details: for Solubility in water: Table 2; for solubility: water, Table 1
Text: In this disclosure, substances are classified as water-soluble if more than 1 g of powder can be added per liter. […] The preferred powders have the following properties: […]

Row | SMILES | Density (Density of the powder) [g/mL] | Classification as hygroscopic [1] | Solubility in water [2] [g/1] | solubility [2] [mg/mL]
1 | O=C([O-])O.[Na+] [Sodium bicarbonate, sodium bicarbonate] | 2.54 | hygroscopic |  | 
2 | NCC(=O)O [Glycine, glycine] | 1.61 | hygroscopic |  | 
3 | OC[C@H]1O[C@H](O[C@H]2O[C@H](CO)[C@@H](O)[C@H](O)[C@H]2O)[C@H](O)[C@@H](O)[C@@H]1O [Trehalose, trehalose] | 1.80 | slightly less sensitive | 690 | 690 (≈ 2020 mM)
4 | OC[C@@H](O)[C@@H](O)CO [Erythritol, erythritol] | 1.45 | hygroscopic | 540 | 540 (≈ 4420 mM)
